Assay results published in patent US4431640A, “Process for inducing anabolic and androgenic activity in animals” (Roussel Uclaf, priority 1980, dated 1984).

Columns and labels:
[1] = target: T1, androgen receptor (Rattus norvegicus, UniProt P15207); assay: androgenic activity by hormonal receptor method (displacement of tritied R from prostate cytosol); format: binding, rats; conditions: castrated male rat prostate cytosol, incubated at 0° C. for 2 hours, testosterone = 100
T1 construct: The prostate was removed from male rats castrated 24 hours earlier and it was homogenized; from tissue; host or cells: prostate cytosol (105,000 g supernatant) of male rats castrated 24 hours earlier
T1 sequence (P15207 1-902): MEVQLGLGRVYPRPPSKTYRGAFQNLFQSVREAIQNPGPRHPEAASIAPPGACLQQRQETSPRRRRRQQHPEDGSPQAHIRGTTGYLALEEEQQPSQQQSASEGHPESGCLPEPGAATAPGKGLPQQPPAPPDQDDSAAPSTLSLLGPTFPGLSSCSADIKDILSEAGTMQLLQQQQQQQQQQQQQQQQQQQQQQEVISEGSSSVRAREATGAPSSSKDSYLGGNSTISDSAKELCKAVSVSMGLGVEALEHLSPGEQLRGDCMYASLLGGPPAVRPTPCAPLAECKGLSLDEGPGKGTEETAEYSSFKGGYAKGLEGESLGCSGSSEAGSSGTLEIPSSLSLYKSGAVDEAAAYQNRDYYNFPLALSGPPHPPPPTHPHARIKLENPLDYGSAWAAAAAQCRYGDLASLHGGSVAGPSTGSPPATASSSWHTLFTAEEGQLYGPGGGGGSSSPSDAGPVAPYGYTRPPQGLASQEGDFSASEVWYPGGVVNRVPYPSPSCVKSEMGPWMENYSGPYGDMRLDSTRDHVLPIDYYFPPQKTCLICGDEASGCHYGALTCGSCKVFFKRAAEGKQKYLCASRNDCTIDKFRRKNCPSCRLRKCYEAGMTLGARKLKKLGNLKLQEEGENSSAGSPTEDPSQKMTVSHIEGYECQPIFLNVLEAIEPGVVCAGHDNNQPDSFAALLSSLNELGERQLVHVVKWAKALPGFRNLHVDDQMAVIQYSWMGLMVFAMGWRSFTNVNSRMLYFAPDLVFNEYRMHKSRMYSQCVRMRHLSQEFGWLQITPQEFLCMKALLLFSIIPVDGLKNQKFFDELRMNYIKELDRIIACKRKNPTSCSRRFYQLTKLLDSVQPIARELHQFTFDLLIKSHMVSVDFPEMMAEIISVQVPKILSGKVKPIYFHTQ
Experimental: The androgenic activity of the compound of Example 1 and 11β-propyl-17α-methyl-Δ^4,9 -estradiene-17β-ol-3-one (compound A) were compared by the hormonal receptor method of Raynaud et al [J. Ster. Biochem., Vol. 6 (1975), p. 615-622]. The prostate was removed from male rats castrated 24 hours earlier and it was homogenized in a buffered 10 mmole tromethamine solution containing 0.25 M of saccharose and a pH of 7.4 with hydrochloric acid. The homogenate was centrifuged at 105,000 g for one hour and the liquid surnageant or "cytosol" was adjusted to obtain a 1/5 (weight/volume) dilution.
The radioactivity of tritied product was determined after about 2 hours in the receptor by the technique of carbon-dextran (1.25%-0.625%) absorption. […] B/T max. is the percentage of tied tritied R product when the compound is not added. B/T min. is the percentage of tied tritied product R when the maximum amount of cold product R is added. […] The relative affinity of the test product or ARL was determined using the formula [formula]

[2] = system: calves of the FFPN race; assay: weight gain test in calves after percutaneous treatment; format: in vivo
Experimental: This test was effected with groups of calves of the FFPN race and all groups received the same amount of feed. The control group were untreated and the other group received percutaneously on day J and J+7 200 mg of the compound of Example 1. The weights of the animals were determined 7 days before the treatment (J-7), on the day of treatment (J), on the day of the second treatment (J+7) and one week after the second treatment (J+14) and the results are reported in the following Table.

| SMILES | relative affinity (ARL) [1] | average weight gain ([2]; 7 days after the test, J 14 to J 21, 200 mg percutaneously on J and J+7) [kg] | Average weight of calves ([2]; day J + 7, day of second treatment, 200 mg percutaneously on J and J+7) [kg] | Average weight of calves ([2]; day J + 14, one week after second treatment, 200 mg percutaneously on J and J+7) [kg] | Average weight of calves ([2]; day J - 7, 7 days before the treatment (baseline)) [kg] | Average weight of calves ([2]; day J, day of first treatment (200 mg percutaneously)) [kg] | average weight gain ([2]; table total (J to J + 14), 200 mg percutaneously on J and J+7) [kg] |
| --- | --- | --- | --- | --- | --- | --- | --- |
| CCC[C@H]1C[C@@]2(C)[C@@H](CC[C@]2(C)O)[C@@H]2CCC3=CC(=O)CCC3=C12 [product A, 11β-propyl-17α-methyl-Δ^4,9-estradiene-17β-ol-3-one, reference compound] | 22 |  |  |  |  |  |  |
| C[C@H]1C[C@@]2(C)[C@@H](CC[C@]2(C)O)[C@@H]2CCC3=CC(=O)CCC3=C21 [Example 1, 11β,17α-dimethyl-Δ^4,9-estradiene-17β-ol-3-one] | 90 | 8.63 | 60.47 | 70.67 | 45.50 | 52.30 | 18.37 |
